Results from paper PMC4805082, “Seizure control by decanoic acid through direct AMPA receptor inhibition” (Brain, 2015).

Key:
[1] = test system: epileptiform activity (burst discharges) in hippocampal slices induced by pentylenetetrazol; experiment: In vitro seizure model, pentylenetetrazol-induced epileptiform activity in hippocampal slices; type: cell-based, rat; conditions: 1 mM; pentylenetetrazol 2 mM, K+ 6 mM
Protocol: (§1) Male Sprague-Dawley rats (postnatal Days 19–30) were sacrificed using an overdose of isoflurane or pentobarbitone (500 mg/kg). After decapitation the brain was rapidly removed, the hippocampus or entorhinal cortex-hippocampus slices was dissected from the brain and […] thick transverse slices were prepared on a VT1200S vibratome (Leica) or Vibratome (Vibratome® 1500 sectioning system, Intracell). The slicing was performed in ice-cold sucrose-based solution containing (in mM): 75 sucrose, 87 NaCl, 22 glucose, 2.5 KCl, 7 MgCl2, 1.25 NaH2PO4, 0.5 CaCl2 and 25 NaHCO3, pH 7.4, 315–330 mOsm equilibrated with 95% O2 plus 5% CO2. The slices were then stored in a continuously oxygenated humidified interface holding chamber containing oxygenated artificial CSF (in mM): 120 NaCl, 22 glucose, 2.5 KCl, 1.3 MgSO4, 1 NaH2PO4, 25 NaHCO3 and 2.5 CaCl2, pH 7.4 296 mOsm, where they recovered for at least 1 h before use.
(§2) During the experiment, slices were transferred from the interface chamber into a submerged recording chamber, designed to optimize wash-in and wash-out of drugs, and continuously perfused using gravity feed at 3–6 ml/min with prewarmed (36°C) oxygenated artificial CSF (95% O2, 5% CO2). Field potentials were recorded with a glass microelectrode (1–2 MΩ) filled with artificial CSF solution placed in stratum radiatum of CA1 and were filtered at 1 kHz and digitized at 2 kHz (using an npi EXT-02F extracellular amplifier recorded with WinEDR software). In the pentylenetetrazol model, the epileptiform (paroxysmal) activity was induced by application of pentylenetetrazol (2 mM) to the perfusate and [K^+] was increased (to 6 mM); in low-Mg^2+ model, the epileptiform activity was elicited by using Mg^2+-free artificial CSF. Once the frequency of the paroxysmal activity was stable for at least 10 min, compounds were applied to the perfusate for the following 40 min, and washed out for a remaining 20 min. The anticonvulsant effects were evaluated by measuring the change in the frequency of the discharges at minute intervals. The discharge frequency was then averaged every 5 min during the experiment and normalized to baseline. The compounds applied in this study included: 1% dimethyl sulphoxide (DMSO), acetone (10 mM, Sigma), (±)-sodium 3-hydroxybutyrate (BHB) (10 mM, Sigma), and decanoic acid (1 mM, Alfa Aesar Pty). Acetone and decanoic acids were prepared as 1000× stocks in DMSO, and BHB was prepared as 100× stock. Stocks were dissolved in artificial CSF to achieve their final concentrations during experiments, and where applicable, experiments included constant levels of DMSO.

[2] = test system: epileptiform activity (burst discharges) in hippocampal slices induced by low-Mg2+; experiment: In vitro seizure model, low-Mg2+ induced epileptiform activity in hippocampal slices; type: cell-based, rat; conditions: 1 mM; low magnesium
Protocol: as §1
as §2, with “The discharge frequency was then averaged every 5 min during the experiment and normalized to baseline. The compounds applied in this study included: 1% dimethyl sulphoxide (DMSO), acetone (10 mM, Sigma), (±)-sodium 3-hydroxybutyrate (BHB) (10 mM, Sigma), and decanoic acid (1 mM, Alfa Aesar Pty). Acetone and decanoic acids were prepared as 1000× stocks in DMSO, and BHB was prepared as 100× stock. Stocks were dissolved in artificial CSF to achieve their final concentrations during experiments, and where applicable, experiments included constant levels of DMSO.” left out

AMPA receptor GluA1/2 = molecular target: T1, AMPA receptor GluA1/2 (Homo sapiens, UniProt P42261+P42262); experiment: Two-electrode voltage clamp, AMPA receptor GluA1/2 expressed in Xenopus oocytes; type: cell-based
T1 construct: expressed in transfected cells; host or cells: Xenopus laevis oocytes injected with cRNA (1:1 mix)
T1 sequence (P42261 19-906 isoform P42261-2 limits assumed): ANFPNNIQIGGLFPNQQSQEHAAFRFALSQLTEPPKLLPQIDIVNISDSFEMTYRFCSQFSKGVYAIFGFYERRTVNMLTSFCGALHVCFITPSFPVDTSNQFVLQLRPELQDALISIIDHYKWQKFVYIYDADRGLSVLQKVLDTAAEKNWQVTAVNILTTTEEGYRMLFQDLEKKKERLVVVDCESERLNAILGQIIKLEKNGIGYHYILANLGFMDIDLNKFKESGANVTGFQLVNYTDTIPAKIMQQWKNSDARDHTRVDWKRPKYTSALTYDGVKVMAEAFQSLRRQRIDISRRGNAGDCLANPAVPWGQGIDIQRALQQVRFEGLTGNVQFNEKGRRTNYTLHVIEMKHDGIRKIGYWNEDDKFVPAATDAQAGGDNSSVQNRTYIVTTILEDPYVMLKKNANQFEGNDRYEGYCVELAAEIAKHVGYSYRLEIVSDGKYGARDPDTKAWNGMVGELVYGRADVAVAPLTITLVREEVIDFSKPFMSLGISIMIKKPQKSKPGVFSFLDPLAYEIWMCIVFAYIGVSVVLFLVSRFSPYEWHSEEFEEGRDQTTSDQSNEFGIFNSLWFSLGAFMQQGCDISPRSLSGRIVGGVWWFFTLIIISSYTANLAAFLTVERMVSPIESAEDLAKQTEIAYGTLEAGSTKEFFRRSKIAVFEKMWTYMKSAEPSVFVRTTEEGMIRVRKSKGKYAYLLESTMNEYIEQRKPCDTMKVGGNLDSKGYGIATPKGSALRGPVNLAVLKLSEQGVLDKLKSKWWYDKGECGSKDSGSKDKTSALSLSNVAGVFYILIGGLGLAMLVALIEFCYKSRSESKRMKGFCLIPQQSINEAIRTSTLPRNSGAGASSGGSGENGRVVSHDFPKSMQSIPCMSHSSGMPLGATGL
T1 sequence (P42262 22-883 isoform P42262-2 limits assumed): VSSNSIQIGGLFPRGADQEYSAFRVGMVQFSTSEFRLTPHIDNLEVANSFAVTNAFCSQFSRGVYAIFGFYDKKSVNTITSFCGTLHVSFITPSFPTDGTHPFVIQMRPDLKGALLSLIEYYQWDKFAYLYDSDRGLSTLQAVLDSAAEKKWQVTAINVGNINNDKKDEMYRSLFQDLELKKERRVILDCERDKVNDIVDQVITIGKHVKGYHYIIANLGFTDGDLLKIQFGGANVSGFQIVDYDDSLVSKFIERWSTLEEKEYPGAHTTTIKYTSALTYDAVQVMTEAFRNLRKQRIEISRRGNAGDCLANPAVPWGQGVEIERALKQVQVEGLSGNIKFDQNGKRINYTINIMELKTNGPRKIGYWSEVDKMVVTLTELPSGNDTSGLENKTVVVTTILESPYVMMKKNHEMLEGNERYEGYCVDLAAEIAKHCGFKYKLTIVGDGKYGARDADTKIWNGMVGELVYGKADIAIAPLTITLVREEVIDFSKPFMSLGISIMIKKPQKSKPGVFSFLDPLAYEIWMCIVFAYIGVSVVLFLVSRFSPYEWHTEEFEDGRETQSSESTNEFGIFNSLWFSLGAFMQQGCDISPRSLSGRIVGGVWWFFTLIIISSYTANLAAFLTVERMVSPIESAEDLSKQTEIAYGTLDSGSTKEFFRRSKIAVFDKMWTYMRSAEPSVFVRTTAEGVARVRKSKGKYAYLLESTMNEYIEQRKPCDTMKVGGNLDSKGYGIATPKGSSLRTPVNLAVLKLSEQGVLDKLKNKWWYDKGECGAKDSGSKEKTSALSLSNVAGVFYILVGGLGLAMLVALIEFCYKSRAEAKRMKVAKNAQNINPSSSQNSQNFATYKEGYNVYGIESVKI
Protocol: The AMPA receptor (flip isoform) cDNAs inserted in a SP6 polymerase expression vector (pSP6T) were a generous gift from Prof. Ralf Schoepfer (NPP, UCL). […] AMPA receptor cRNAs were mixed in a nominal 1:1 ratio and ∼5 ng was injected per oocyte.
Xenopus laevis oocytes were purchased from the European Xenopus Resource Centre, University of Portsmouth. Stage V to VI oocytes were mechanically dissected and then subjected to gentle shaking for ∼30–50 min at room temperature with modified Barth’s solution (in mM): 88 NaCl, 1 KCl, 2.4 NaHCO3, 0.82 MgCl2, 0.77 CaCl2, 15 Tris-Cl, adjusted to pH 7.4 with NaOH (Sigma-Aldrich), supplemented with 50 IU/ml penicillin and 50 µg/ml streptomycin (Invitrogen) and 50 µg/ml tetracycline (Sigma-Aldrich) and 1% collagenase (type 1A). Healthy oocytes were manually defolliculated and the injections of cRNA for homomeric subunits alone (GluA1), or heteromeric mixtures of two subunits together (GluA1/GluA2 or GluA2/GluA3) were made using an automated Drummond Nanoinject II injector. The oocytes were then incubated at 17°C in modified Barth’s solution for at least 48 h before use in electrophysiological recordings.
Experiments were performed at room temperature (∼21–23°C). […]

- IC50 (AMPA receptor GluA1/2): 1160 µM
Structure (SMILES): CCCCCCCCCC(=O)O [decanoic acid]
- effect on epileptiform activity [1]: completely blocked
- effect on epileptiform activity [2]: completely blocked
